Assay [1] relates to RBE cells. Nature of the assay: Cell Viability Protocol (CellTiterGlo), RBE cells. The format is cell-based. Conditions: RBE or SNU-1079 cells, 72 or 120 hour, cell line and time not given. The method, boiled down:
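RBE cells plated at 1200/well in RPMI 1640 with 10% FBS, incubated 24 h, then dosed with compound from DMSO stocks and incubated 72 or 120 h at 37° C. CellTiterGlo luminescence normalised to DMSO control; IC50 from 4-parameter fit.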
In general terms: Cellular ATP, detected with luciferase, serves as a proxy for viable cell number.

The target of assay [2] is SRC (Homo sapiens, UniProt P12931). Nature of the assay: SRC Biochemical Assay Protocol (microfluidic mobility shift assay, FLPeptide4 substrate). The method, boiled down: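 Recombinant SRC (0.26 nM) preincubated 30 min at RT with compound (0.0017–100 μM) and 1.5 μM FLPeptide4, then 50 μM ATP added; 90 min reaction in HEPES pH 7.4, 10 mM MgCl2, 1% DMSO, EDTA-quenched. Phosphopeptide quantified by microfluidic mobility shift; IC50 from 4-parameter logistic fit.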
Sequence of SRC (P12931 whole entry, species assumed): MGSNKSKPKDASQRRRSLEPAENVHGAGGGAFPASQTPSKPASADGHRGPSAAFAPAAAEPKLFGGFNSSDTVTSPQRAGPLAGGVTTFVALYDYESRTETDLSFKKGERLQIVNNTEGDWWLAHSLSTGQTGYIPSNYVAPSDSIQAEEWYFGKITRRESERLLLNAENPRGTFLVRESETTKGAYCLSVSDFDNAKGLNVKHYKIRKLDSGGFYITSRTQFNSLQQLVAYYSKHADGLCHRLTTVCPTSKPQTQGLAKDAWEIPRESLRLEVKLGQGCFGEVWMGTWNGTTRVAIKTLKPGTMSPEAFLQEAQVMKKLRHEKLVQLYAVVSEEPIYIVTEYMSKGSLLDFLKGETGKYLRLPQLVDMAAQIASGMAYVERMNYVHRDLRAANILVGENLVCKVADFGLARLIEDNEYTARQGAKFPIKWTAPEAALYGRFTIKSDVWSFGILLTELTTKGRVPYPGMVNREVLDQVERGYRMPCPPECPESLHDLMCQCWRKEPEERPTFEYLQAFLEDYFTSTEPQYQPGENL

Assay [3] concerns phospho-S6RP (Ser 235/236) in RBE cells. Nature of the assay: Cellular Proliferation Protocol (cellular phospho-S6RP HTRF), RBE cells. The format is cell-based. Conditions: 6 hours treatment, RBE or SNU-1079 cells, cell line not given. Put shortly:
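RBE cells, 2000/well, seeded 24 h before 6 h compound treatment at 37° C. Lysates were probed with a Eu-cryptate/d2 HTRF antibody sandwich for phospho-S6RP (Ser 235/236), incubated overnight at room temperature. Signal normalised to DMSO control and IC50 fitted to a 4-parameter curve.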
Background: Time-resolved FRET reads energy transfer from a long-lived donor to a nearby acceptor.

13 compounds from patent US20250154154A1 (Relay Binney Street, 2nd Floor, priority 2020, published 2025) can be followed below.

`Cn1c(C#C[C@@H]2[C@H]3CN(C(=O)/C=C/CN4CCC(F)C4)C[C@@H]23)c(-c2ccc(Oc3cccc(F)c3)cc2)c2c(N)ncnc21` (stereo partly drawn) [II-234, (E)-1-((1R,5S,6s)-6-((4-amino-5-(4-(3-fluorophenoxy)phenyl)-7-methyl-7H-pyrrolo[2,3-d]pyrimidin-6-yl)ethynyl)-3-azabicyclo[3.1.0]hexan-3-yl)-4-(3-fluoropyrrolidin-1-yl)but-2-en-1-one]: the IC50 in assay [1], in assay [2] and in assay [3] (6 h) was 10 to 1000 nM each time.

For the compound `C=CC(=O)N1CCC(C#Cc2c(-c3ccc(Oc4ccccc4)cc3)c3c(N)ncnc3n2C(C)C)C1` (stereo not drawn) [Example I-5], the IC50 in assay [1], in assay [2] and in assay [3] (6 h) was ≤ 10 nM throughout.

In the case of `C=CC(=O)N1CCC(N2CC(C#Cc3c(-c4ccc(Oc5ccccc5)cc4)c4c(N)ncnc4n3C3CC(=O)N(C)C3)C2)CC1` (stereo not drawn) [II-213, 4-(6-((1-(1-acryloylpiperidin-4-yl)azetidin-3-yl)ethynyl)-4-amino-5-(4-phenoxyphenyl)-7H-pyrrolo[2,3-d]pyrimidin-7-yl)-1-methylpyrrolidin-2-one], the IC50 in assay [1], in assay [2] and in assay [3] (6 h) was 1000 to 10000 nM each time.

In the case of `C=CC(=O)NCC(=O)N1CCC(C#Cc2c(-c3ccc(Oc4ccccc4)cc3)c3c(N)ncnc3n2C(C)C)CC1` [Example I-49], the IC50 in assay [1], in assay [2] and in assay [3] (6 h) was ≤ 10 nM each time.

Regarding `C=CC(=O)N1CC[C@@H](N2CC(C#Cc3c(-c4ccc(Cl)c(F)c4)c4c(N)ncnc4n3C)C2)[C@@H](O)C1` [II-66], the IC50 in assay [1], in assay [2] and in assay [3] was 10 to 1000 nM throughout.

`C=CS(=O)(=O)N1CCC(N2CC(C#Cc3c(-c4ccc(Oc5ccccc5)c(OC)c4)c4c(N)ncnc4n3C)C2)CC1` [II-83]: the IC50 (usually the concentration that gives 50% inhibition) in assay [1] was 10 to 1000 nM; in assay [2], ≤ 10 nM; in assay [3], 10 to 1000 nM.

For the compound `COc1cc(Oc2ccccc2F)ccc1-c1c(C#C[C@@H]2[C@H]3CN(C(=O)/C=C/CN(C)C)C[C@@H]23)n(C)c2ncnc(N)c12` [II-228, (E)-1-((1R,5S,6s)-6-((4-amino-5-(4-(2-fluorophenoxy)-2-methoxyphenyl)-7-methyl-7H-pyrrolo[2,3-d]pyrimidin-6-yl)ethynyl)-3-azabicyclo[3.1.0]hexan-3-yl)-4-(dimethylamino) but-2-en-1-one], the IC50 in assay [1], in assay [2] and in assay [3] (6 h) was 10 to 1000 nM in each case.

`C=CC(=O)N1CCC(N2CC(C#Cc3c(-c4cccc5c4cnn5C)c4c(N)ncnc4n3C)C2)CC1` [II-93]: the IC50 in assay [1], in assay [2] and in assay [3] was 1000 to 10000 nM each time.

Take `C=CC(=O)N1CCC(N2CC(C#Cc3c(-c4cccc5c4OCO5)c4c(N)ncnc4n3C)C2)CC1` [II-37]: the IC50 in assay [1], in assay [2] and in assay [3] was 10 to 1000 nM throughout.

For `C=CC(=O)N1CC[C@@H](N2CC(C#Cc3c(-c4ccc(OC(C)C)c(OC)c4)c4c(N)ncnc4n3C)C2)[C@@H](O)C1` [II-71], the IC50 in assay [1], in assay [2] and in assay [3] was 10 to 1000 nM each time.

As to `C=CC(=O)N1CC2C(C#Cc3c(-c4ccc(Cl)c5c4OCO5)c4c(N)ncnc4n3C)C2C1` (stereo not drawn) [II-127], the IC50 was 10 to 1000 nM in assay [1], ≤ 10 nM in assay [2] and 10 to 1000 nM in assay [3].

Turning to `C=CC(=O)N1CC[C@@H](N2CC(C#Cc3c(-c4ccc(Cl)c(C)c4)c4c(N)ncnc4n3C)C2)[C@@H](O)C1` [II-64], the IC50 in assay [1], in assay [2] and in assay [3] was 10 to 1000 nM in each case.

For the compound `C=CC(=O)N1CCC(C#Cc2c(-c3ccc(Oc4ccccc4)cc3)c3c(N)ncnc3n2C2CCNC2=O)CC1` (stereo not drawn) [Example I-61], the IC50 lay in the range of 1000 to 10000 nM in assay [1], 10 to 1000 nM in assay [2] and 1000 to 10000 nM in assay [3] (6 h).
